These results are taken from patent US7211573B2, “Malonamide derivatives” (Hoffmann-La Roche Inc., priority 2004, dated 2007).

Broadly, the melting point is the temperature of the solid-liquid transition. With `CCN1C(=O)[C@@H](NC(=O)C(C)C(=O)NCC(F)(F)C(F)(F)F)COc2ccccc21` (stereo partly drawn) [Example 14, N-((S)-9-Ethyl-8-oxo-6,7,8,9-tetrahydro-5-oxa-9-aza-benzocyclohepten-7-yl)-2-methyl-N′-(2,2,3,3,3-pentafluoro-propyl)-malonamide], the melting point was 152 °C.

As to `CC(C(=O)NCC(F)(F)C(F)(F)F)C(=O)N[C@@H]1C(=O)Nc2cc(F)ccc2O[C@@H]1C` (stereo partly drawn) [Example 23, N-((6R,7S)-2-Fluoro-6-methyl-8-oxo-6,7,8,9-tetrahydro-5-oxa-9-aza-benzocyclohepten-7-yl)-2-methyl-N′-(2,2,3,3,3-pentafluoro-propyl)-malonamide], the melting point was in the range of 215 to 216 °C.

In turn, `CC(C(=O)NCC(F)(F)C(F)(F)F)C(=O)N[C@@H]1C(=O)N(C)c2cc(F)ccc2O[C@@H]1C` (stereo partly drawn) [Example 38, N-((6R,7S)-2-Fluoro-6,9-dimethyl-8-oxo-6,7,8,9-tetrahydro-5-oxa-9-aza-benzocyclohepten-7-yl)-2-methyl-N′-(2,2,3,3,3-pentafluoro-propyl)-malonamide] showed a melting point of 126 to 134 °C.

Take `Cc1cccc2c1OC[C@H](NC(=O)C(C)C(=O)NCC(F)(F)C(F)(F)F)C(=O)N2C` (stereo partly drawn) [Example 10b, N-((S)-4,9-Dimethyl-8-oxo-6,7,8,9-tetrahydro-5-oxa-9-aza-benzocyclohepten-7-yl)-2-methyl-N′-(2,2,3,3,3-pentafluoro-propyl)-malonamide]: the melting point is 107 °C.

Compound `CC(C(=O)NCC(F)(F)C(F)(F)F)C(=O)N[C@@H]1C(=O)N(C)c2c(F)cccc2O[C@@H]1C` (stereo partly drawn) [Example 37, N-((6R,7S)-1-Fluoro-6,9-dimethyl-8-oxo-6,7,8,9-tetrahydro-5-oxa-9-aza-benzocyclohepten-7-yl)-2-methyl-N′-(2,2,3,3,3-pentafluoro-propyl)-malonamide] returned a melting point of 126 to 134 °C.

As to `C[C@H](OC(=O)NCC(F)(F)C(F)(F)F)C(=O)N[C@@H]1C(=O)N(C)c2cc(F)ccc2O[C@@H]1C` [Example 48, (2,2,3,3,3-Pentafluoro-propyl)-carbamic acid (S)-1-((6R,7S)-2-fluoro-6,9-dimethyl-8-oxo-6,7,8,9-tetrahydro-5-oxa-9-aza-benzocyclohepten-7-ylcarbamoyl)-ethyl ester], the melting point was in the range of 148 to 150 °C.
